Key:
MEDI-524 Mab = experiment: Isothermal titration calorimetry (ITC) of F peptides with MEDI-524 Mab; assay type: binding; conditions: 25 mM His, pH 6, 10° C.
Description: Isothermal Titration calorimetry assays (ITC) have been described (see, for example, Heerklotz H et al., Biophysical Journal, May 1999). Molecular interactions are defined by stoichiometry and a few thermodynamic parameters. All binding reactions are associated with the absorption or generation of heat. Therefore calorimetry is emerging as a premier tool for the characterisation of interactions of biological macromolecules. ITC is the only method that measures equilibrium constants, enthalpy and entropy in one single experiment. If the experiment is performed at different temperatures the important parameter, the heat capacity change, can be determined. ITC has become a standard method for investigating the binding of ligands to receptor molecules. Accordingly, ligands are mixed with receptors, and the subsequent heats of incorporation (or binding) are measured.
To evaluate the binding properties of the wild-type peptide (SEQ ID NO.28) to Numax™/MEDI-524 by using the ITC technique. The MEDI-524 Mab was titrated with SEQ ID NO.28 in the basis buffer 25 mM His, pH 6 at 10° C. SEQ ID NO.28: (MW=2732.14, no W, Y, or C). A working solution of 55 μM was prepared by diluting 30 μL of a 5 mg/mL peptide solution with 970 μL, of 25 mM His, pH 6 buffer to be used for the ITC titrations. A 1.15 μM (0.1706 mg/ml) working solution of MEDI-524 was used for the experiments (MW 148400, A280=1.47). […]

MEDI-524 (Numax™) = experiment: Binding ELISA of F-peptides; conditions: peptide coated on plate
Description: Based in part upon the results of the MARM analysis above, F peptides were synthesized (done by AnaSpec, Inc. San Jose, Calif.). Each well of the assay plate was coated with […] of […] of a particular soluble RSV F-Peptide overnight at 2-8° C. After the plate was aspirated and washed with PBS/0.05% Tween-20 buffer, it was blocked by incubating with PBS/0.05% Tween-20/0.5% BSA buffer for one hour at ambient temperature. The plate was washed and MEDI-524 standard curve samples, test samples, MEDI-524 Reference Standard, and negative control were added to the washed plate. Following a one-hour incubation at ambient temperature, the plate was washed, and […] of a goat anti-human IgG-HRP (horseradish peroxidase) at 1:16,000 dilution was added to the plate. After washing, […] of 3,3′,5,5′-tetramethylbenzidine (TMB) substrate was then added to the plate and incubated at ambient temperature protected from light for 10 minutes. The enzymatic reaction was stopped by adding […] of 2N H2SO4, and the absorbance at 450 nm was measured using a microplate reader. […] After meeting all system suitability requirements, as well as meeting the criteria of the parallelism test, the ED50 ratio of the test sample to Reference Standard was calculated, and the results were expressed as a percentage of the Reference Standard binding activity. […]

Substance | binding strength lower compared to the SEQ ID NO.24 peptide (MEDI-524 Mab) | Binding to Numax™ compared with wild-type F protein epitope (SEQ ID NO. 1) (MEDI-524 (Numax™))
NSELLSLINDMPITNDQKKLMSNN-NH2 [SEQ ID NO.28] | ~3 orders of magnitude | –
F peptide with a histidine at position 262: F peptide with a histidine at position 262; SEQ ID number not stated (SEQ ID No: 13, 25 and 26 carry it) (NSELLSLIHDMPITNDQKKLMSNN) | – | more tightly

Reference: patent US9499590B2, “Antibodies against and methods for producing vaccines for respiratory syncytial virus” (MEDIMMUNE, LLC, priority 2009, dated 2016)
